In ChEMBL document CHEMBL4879553, “Data for DCP probe BAY1125976” (2021):
pKi: −log10 of the molar value. Active and inactive are the calls of the source. The calls are words filed in the database; no cut-off is given here.

Experiments:
[1] = biological target: RAC-gamma serine/threonine-protein kinase (Homo sapiens, UniProt Q9Y243); experiment: NanoBRET (AKT3)
[2] = NanoBRET (AKT1); conditions: Homo sapiens
[3] = biological target: Sodium-dependent serotonin transporter (Homo sapiens) (UniProt P31645); conditions: Compound concentration 10.0 uM
Sequence of Sodium-dependent serotonin transporter (Homo sapiens) (P31645 whole entry, looked up): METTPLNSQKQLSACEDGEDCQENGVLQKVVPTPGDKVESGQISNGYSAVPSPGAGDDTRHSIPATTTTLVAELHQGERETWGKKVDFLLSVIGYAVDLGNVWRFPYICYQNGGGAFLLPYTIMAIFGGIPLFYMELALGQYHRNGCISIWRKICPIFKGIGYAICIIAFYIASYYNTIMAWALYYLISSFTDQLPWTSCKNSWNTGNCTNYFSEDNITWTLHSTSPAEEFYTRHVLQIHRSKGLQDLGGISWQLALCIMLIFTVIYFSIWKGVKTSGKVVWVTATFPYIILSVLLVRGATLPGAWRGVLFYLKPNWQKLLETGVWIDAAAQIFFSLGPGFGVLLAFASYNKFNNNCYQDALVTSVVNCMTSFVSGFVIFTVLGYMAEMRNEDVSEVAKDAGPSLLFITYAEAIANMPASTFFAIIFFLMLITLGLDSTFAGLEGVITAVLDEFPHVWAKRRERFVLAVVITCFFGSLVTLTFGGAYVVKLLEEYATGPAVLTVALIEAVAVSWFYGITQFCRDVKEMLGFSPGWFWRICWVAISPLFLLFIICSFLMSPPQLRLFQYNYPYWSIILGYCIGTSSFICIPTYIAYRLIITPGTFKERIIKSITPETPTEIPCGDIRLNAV

[4] = biological target: Alpha-2A adrenergic receptor (Homo sapiens) (UniProt P08913); conditions: Compound concentration 10.0 uM
[5] = biological target: Alpha-1A adrenergic receptor (Homo sapiens) (UniProt P35348); conditions: Compound concentration 10.0 uM
[6] = biological target: 5-hydroxytryptamine receptor 7 (Homo sapiens) (UniProt P34969); conditions: Compound concentration 10.0 uM
Sequence of 5-hydroxytryptamine receptor 7 (Homo sapiens) (P34969 whole entry): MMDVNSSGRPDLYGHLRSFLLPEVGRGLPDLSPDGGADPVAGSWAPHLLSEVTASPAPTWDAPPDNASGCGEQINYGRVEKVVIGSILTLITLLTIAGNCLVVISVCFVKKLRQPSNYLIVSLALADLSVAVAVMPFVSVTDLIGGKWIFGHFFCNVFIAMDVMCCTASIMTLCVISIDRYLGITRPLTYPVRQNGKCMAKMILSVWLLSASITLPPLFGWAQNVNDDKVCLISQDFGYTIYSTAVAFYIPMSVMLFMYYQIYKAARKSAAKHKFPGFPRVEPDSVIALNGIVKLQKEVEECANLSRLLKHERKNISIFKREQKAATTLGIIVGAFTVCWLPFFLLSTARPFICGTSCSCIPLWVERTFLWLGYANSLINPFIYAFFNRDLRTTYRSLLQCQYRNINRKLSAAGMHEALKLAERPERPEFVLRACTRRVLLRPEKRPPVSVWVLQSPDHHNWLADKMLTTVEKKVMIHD

[7] = biological target: 5-hydroxytryptamine receptor 5A (Homo sapiens) (UniProt P47898); conditions: Compound concentration 10.0 uM
Rattus norvegicus = species: Rattus norvegicus; conditions: Compound concentration 10.0 uM
[8] = biological target: 5-hydroxytryptamine receptor 2C (Homo sapiens) (UniProt P28335); conditions: Compound concentration 10.0 uM
[9] = biological target: D(1A) dopamine receptor (Homo sapiens) (UniProt P21728); conditions: Compound concentration 10.0 uM
Sequence of D(1A) dopamine receptor (Homo sapiens) (P21728 whole entry): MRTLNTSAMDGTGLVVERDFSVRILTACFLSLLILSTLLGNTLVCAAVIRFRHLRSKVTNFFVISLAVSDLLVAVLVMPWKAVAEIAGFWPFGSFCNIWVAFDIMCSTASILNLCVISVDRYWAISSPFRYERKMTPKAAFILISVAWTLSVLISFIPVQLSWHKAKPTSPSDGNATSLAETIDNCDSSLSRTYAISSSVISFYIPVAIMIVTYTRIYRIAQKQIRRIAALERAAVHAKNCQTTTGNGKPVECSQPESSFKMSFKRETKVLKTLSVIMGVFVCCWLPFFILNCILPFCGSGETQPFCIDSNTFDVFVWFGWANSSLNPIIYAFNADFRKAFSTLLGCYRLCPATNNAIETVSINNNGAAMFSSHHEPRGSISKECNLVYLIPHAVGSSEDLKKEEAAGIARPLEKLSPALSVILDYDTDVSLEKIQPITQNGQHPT

[10] = biological target: 5-hydroxytryptamine receptor 1B (Homo sapiens) (UniProt P28222); conditions: Compound concentration 10.0 uM
[11] = biological target: Kappa-type opioid receptor (Homo sapiens) (UniProt P41145); conditions: Compound concentration 10.0 uM
[12] = Mechanistic cell assay: Inhibition of activation by phosphorylation (AKT1-S473); conditions: Homo sapiens
[13] = biological target: Alpha-1B adrenergic receptor (Homo sapiens) (UniProt P35368); conditions: Compound concentration 10.0 uM
[14] = biological target: 5-hydroxytryptamine receptor 2B (Homo sapiens) (UniProt P41595); conditions: Compound concentration 10.0 uM
[15] = Mechanistic cell assay: Inhibition of activation by phosphorylation (4EBPI-T70); conditions: Homo sapiens
[16] = biological target: D(1B) dopamine receptor (Homo sapiens) (UniProt P21918); conditions: Compound concentration 10.0 uM
[17] = biological target: Sigma intracellular receptor 2 (Homo sapiens) (UniProt Q5BJF2); conditions: Compound concentration 10.0 uM
Sequence of Sigma intracellular receptor 2 (Homo sapiens) (Q5BJF2 whole entry): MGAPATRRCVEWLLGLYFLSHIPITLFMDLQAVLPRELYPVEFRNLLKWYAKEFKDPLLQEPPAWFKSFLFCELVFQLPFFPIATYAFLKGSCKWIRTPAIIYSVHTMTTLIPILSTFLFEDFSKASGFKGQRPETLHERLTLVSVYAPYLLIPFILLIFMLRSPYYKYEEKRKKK

[18] = biological target: Muscarinic acetylcholine receptor M3 (Homo sapiens) (UniProt P20309); conditions: Compound concentration 10.0 uM
[19] = biological target: 5-hydroxytryptamine receptor 1D (Homo sapiens) (UniProt P28221); conditions: Compound concentration 10.0 uM
[20] = biological target: Alpha-2B adrenergic receptor (Homo sapiens) (UniProt P18089); conditions: Compound concentration 10.0 uM
Sequence of Alpha-2B adrenergic receptor (Homo sapiens) (P18089 whole entry): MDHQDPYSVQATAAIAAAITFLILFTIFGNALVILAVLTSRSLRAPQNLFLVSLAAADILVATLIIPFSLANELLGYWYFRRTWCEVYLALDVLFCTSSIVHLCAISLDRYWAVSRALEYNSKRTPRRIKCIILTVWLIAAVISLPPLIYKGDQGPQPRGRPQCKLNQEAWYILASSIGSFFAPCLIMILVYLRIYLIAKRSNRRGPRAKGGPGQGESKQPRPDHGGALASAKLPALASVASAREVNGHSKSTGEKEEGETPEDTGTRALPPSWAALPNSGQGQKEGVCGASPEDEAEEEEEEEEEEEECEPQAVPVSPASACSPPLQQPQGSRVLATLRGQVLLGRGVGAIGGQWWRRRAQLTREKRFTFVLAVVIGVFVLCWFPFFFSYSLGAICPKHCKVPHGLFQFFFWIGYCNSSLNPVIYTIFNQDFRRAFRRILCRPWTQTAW

[21] = Mechanistic cell assay: Blocking of the activation of the downstream signaling molecule 4EBP1 by phosphorylation at mTOR substrate T70; set-up: species or system Homo sapiens
[22] = Mechanistic cell assay: Inhibition of phosphorylation (AKT1-S473); conditions: Homo sapiens
[23] = biological target: 5-hydroxytryptamine receptor 1A (Homo sapiens) (UniProt P08908); conditions: Compound concentration 10.0 uM
[24] = biological target: Sodium-dependent noradrenaline transporter (Homo sapiens) (UniProt P23975); conditions: Compound concentration 10.0 uM
[25] = biological target: Muscarinic acetylcholine receptor M2 (Homo sapiens) (UniProt P08172); conditions: Compound concentration 10.0 uM
[26] = biological target: Alpha-1D adrenergic receptor (Homo sapiens) (UniProt P25100); conditions: Compound concentration 10.0 uM
[27] = biological target: Beta-2 adrenergic receptor (Homo sapiens) (UniProt P07550); conditions: Compound concentration 10.0 uM
[28] = biological target: Muscarinic acetylcholine receptor M4 (Homo sapiens) (UniProt P08173); conditions: Compound concentration 10.0 uM
[29] = biological target: Histamine H2 receptor (Homo sapiens) (UniProt P25021); conditions: Compound concentration 10.0 uM
Sequence of Histamine H2 receptor (Homo sapiens) (P25021 whole entry): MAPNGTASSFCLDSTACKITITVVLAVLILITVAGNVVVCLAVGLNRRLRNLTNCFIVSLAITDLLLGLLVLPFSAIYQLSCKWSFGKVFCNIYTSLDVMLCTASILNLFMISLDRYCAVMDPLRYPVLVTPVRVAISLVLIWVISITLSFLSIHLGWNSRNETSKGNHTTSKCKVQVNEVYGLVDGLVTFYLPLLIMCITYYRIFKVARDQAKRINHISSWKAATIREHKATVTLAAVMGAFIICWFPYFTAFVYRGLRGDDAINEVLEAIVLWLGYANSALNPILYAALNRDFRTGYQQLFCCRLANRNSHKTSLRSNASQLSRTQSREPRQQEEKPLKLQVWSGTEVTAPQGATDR

[30] = biological target: Muscarinic acetylcholine receptor M1 (Homo sapiens, UniProt P11229); experiment: GPCRScan assay: inhibition of M1; set-up: radioligand conc. used [nm] 0.3 – 1.2, parental cells stable CHO
Sequence of Muscarinic acetylcholine receptor M1 (P11229 whole entry): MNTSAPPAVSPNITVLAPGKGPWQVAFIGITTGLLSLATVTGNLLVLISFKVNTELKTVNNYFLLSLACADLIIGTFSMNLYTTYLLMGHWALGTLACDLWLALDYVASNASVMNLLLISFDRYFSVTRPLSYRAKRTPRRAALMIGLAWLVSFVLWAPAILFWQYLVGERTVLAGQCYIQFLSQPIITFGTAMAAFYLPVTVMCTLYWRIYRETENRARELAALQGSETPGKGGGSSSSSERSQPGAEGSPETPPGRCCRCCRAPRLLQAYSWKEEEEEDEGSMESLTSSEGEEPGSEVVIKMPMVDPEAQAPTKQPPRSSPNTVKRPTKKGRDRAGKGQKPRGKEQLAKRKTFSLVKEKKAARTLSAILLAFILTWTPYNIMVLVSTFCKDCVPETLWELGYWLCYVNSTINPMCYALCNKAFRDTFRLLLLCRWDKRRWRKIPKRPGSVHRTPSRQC

[31] = Mechanistic cell assay: Reduction of the basal levels of AKT phosphorylation in KPL-4 cells at S473; format: cell-based; conditions: Homo sapiens, KPL4
[32] = Mechanistic cell assay: inhibition of PRAS40 phosphorylation at T246; conditions: Homo sapiens
[33] = NanoBRET (AKT2); conditions: Homo sapiens
[34] = biological target: 5-hydroxytryptamine receptor 6 (Homo sapiens) (UniProt P50406); conditions: Compound concentration 10.0 uM
Sequence of 5-hydroxytryptamine receptor 6 (Homo sapiens) (P50406 whole entry): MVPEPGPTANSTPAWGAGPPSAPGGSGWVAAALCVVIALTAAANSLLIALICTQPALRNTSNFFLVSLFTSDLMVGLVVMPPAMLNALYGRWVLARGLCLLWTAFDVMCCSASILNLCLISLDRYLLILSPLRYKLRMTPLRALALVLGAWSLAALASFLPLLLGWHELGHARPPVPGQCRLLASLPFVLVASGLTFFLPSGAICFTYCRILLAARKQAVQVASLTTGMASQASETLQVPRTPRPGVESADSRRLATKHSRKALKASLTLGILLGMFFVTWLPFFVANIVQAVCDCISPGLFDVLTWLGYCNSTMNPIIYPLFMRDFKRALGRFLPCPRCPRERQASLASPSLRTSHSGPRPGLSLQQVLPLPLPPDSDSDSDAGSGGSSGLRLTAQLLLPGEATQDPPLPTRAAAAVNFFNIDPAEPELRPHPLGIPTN

[35] = biological target: Sigma non-opioid intracellular receptor 1 (Homo sapiens) (UniProt Q99720); conditions: Compound concentration 10.0 uM
[36] = biological target: Histamine H3 receptor (Homo sapiens) (UniProt Q9Y5N1); conditions: Compound concentration 10.0 uM
[37] = biological target: Muscarinic acetylcholine receptor M1 (Homo sapiens) (UniProt P11229); conditions: Compound concentration 10.0 uM
Sequence of Muscarinic acetylcholine receptor M1 (Homo sapiens) (P11229 whole entry): as the sequence (P11229 whole entry) above

[38] = biological target: Delta-type opioid receptor (Homo sapiens) (UniProt P41143); conditions: Compound concentration 10.0 uM
[39] = Mechanistic cell assay: Reduction of the basal levels of AKT phosphorylation in KPL-4 cells at T308; format: cell-based; conditions: Homo sapiens, KPL4
[40] = biological target: Alpha-2C adrenergic receptor (Homo sapiens) (UniProt P18825); conditions: Compound concentration 10.0 uM
[41] = Mechanistic cell assay: Inhibition of phosphorylation (T308); conditions: Homo sapiens
[42] = biological target: Beta-1 adrenergic receptor (Homo sapiens) (UniProt P08588); conditions: Compound concentration 10.0 uM
[43] = biological target: 5-hydroxytryptamine receptor 2A (Homo sapiens) (UniProt P28223); conditions: Compound concentration 10.0 uM
[44] = biological target: D(4) dopamine receptor (Homo sapiens) (UniProt P21917); conditions: Compound concentration 10.0 uM
Sequence of D(4) dopamine receptor (Homo sapiens) (P21917 whole entry): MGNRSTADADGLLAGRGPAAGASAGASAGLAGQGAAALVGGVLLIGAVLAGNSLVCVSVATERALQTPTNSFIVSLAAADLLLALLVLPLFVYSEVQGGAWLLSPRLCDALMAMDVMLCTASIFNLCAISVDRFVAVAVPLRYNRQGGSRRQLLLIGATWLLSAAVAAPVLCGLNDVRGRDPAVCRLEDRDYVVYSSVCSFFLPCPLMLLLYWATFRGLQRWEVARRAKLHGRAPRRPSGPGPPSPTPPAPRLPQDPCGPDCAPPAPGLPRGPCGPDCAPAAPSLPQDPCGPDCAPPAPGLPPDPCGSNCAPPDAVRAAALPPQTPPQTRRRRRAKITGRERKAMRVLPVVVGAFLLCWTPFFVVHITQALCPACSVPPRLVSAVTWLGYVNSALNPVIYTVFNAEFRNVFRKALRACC

[45] = biological target: Muscarinic acetylcholine receptor M5 (Homo sapiens) (UniProt P08912); conditions: Compound concentration 10.0 uM
[46] = Mechanistic cell assay: Inhibition of phosphorylation (4EBPI-T70); conditions: Homo sapiens
[47] = biological target: Histamine H1 receptor (Homo sapiens) (UniProt P35367); conditions: Compound concentration 10.0 uM
[48] = biological target: Mu-type opioid receptor (Homo sapiens) (UniProt P35372); conditions: Compound concentration 10.0 uM
Sequence of Mu-type opioid receptor (Homo sapiens) (P35372 whole entry): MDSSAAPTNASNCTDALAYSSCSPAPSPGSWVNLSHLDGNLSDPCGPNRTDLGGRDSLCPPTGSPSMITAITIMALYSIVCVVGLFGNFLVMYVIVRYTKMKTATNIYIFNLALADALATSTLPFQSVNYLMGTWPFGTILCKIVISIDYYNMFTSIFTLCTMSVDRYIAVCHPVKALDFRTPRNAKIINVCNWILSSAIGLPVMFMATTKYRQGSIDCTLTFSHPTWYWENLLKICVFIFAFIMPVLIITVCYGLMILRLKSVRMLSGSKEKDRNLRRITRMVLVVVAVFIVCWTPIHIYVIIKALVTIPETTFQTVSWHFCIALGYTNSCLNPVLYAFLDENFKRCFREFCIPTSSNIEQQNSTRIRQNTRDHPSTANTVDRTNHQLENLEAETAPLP

[49] = biological target: Beta-3 adrenergic receptor (Homo sapiens) (UniProt P13945); conditions: Compound concentration 10.0 uM
[50] = biological target: GABA-A receptor; anion channel (Rattus norvegicus) (UniProt O09028+P15431+P18506+P18508+P19969+P20236+P23574+P23576+P28471+P28473+P30191+P62813+P63079+P63138+Q91ZM7+Q9ES14); conditions: Compound concentration 10.0 uM
[51] = biological target: D(3) dopamine receptor (Homo sapiens) (UniProt P35462); conditions: Compound concentration 10.0 uM
[52] = biological target: 5-hydroxytryptamine receptor 3A (Homo sapiens) (UniProt P46098); conditions: Compound concentration 10.0 uM
[53] = biological target: Sodium-dependent dopamine transporter (Homo sapiens) (UniProt Q01959); conditions: Compound concentration 10.0 uM
Sequence of Sodium-dependent dopamine transporter (Homo sapiens) (Q01959 whole entry): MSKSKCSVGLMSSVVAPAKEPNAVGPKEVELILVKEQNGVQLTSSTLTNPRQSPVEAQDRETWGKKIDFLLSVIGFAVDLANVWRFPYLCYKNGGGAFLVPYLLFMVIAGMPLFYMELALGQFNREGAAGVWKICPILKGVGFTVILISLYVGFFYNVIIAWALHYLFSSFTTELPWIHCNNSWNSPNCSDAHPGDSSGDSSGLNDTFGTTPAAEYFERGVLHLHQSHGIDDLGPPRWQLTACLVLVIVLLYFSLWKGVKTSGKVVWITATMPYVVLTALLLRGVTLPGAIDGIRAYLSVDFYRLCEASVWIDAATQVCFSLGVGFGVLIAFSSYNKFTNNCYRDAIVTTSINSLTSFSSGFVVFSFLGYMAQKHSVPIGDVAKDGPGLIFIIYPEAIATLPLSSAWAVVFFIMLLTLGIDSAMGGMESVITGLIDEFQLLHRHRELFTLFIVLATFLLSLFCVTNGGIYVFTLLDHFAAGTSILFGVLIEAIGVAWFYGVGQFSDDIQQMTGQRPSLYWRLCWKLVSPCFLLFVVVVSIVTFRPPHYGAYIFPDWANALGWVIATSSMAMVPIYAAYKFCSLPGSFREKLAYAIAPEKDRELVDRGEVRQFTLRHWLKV

[54] = biological target: D(2) dopamine receptor (Homo sapiens) (UniProt P14416); conditions: Compound concentration 10.0 uM

In the case of `NC1(c2ccc(-c3nc4c(O)ccnn4c3-c3ccccc3)cc2)CCC1`, the EC50 [1] was > 50000 nM (not active), the EC50 [2] was 1300 nM (not active) and the IC50 [2] was 6000 nM (not active).

`NC(=O)c1ccc2nc(-c3ccc(C4(N)CCC4)cc3)c(-c3ccccc3)n2n1` [BAY-1125976] gave an inhibition [3] of 14.8%, an inhibition [4] of 6.89% and an inhibition [5] of 39.4%. It also gave an inhibition [6] of 12.9%, an inhibition [7] of 9.78% and an inhibition (Rattus norvegicus) of 40.5%. For the same compound, the inhibition [8] was 25.7%, the inhibition [9] was -3.8% and the inhibition [10] was 10.2%. The inhibition [11] was 25.4%, the IC50 [12] was 35 nM (active) and the inhibition [13] was -8.97%. For the same compound, the inhibition [14] was 13.4%, the IC50 [15] was 100 nM (active) and the inhibition [16] was 23.4%. For the same compound, the inhibition [17] was 39.9%, the inhibition [18] was 20.1% and the inhibition [19] was 12.2%. For the same compound, the inhibition [20] was 28.7%, the IC50 [21] was 35 nM (active) and the IC50 [22] was 0.8 nM (active). The inhibition [23] was 32.7%, the inhibition [24] was 47.5% and the inhibition [25] was 11.2%. The inhibition [26] was 37.8%, the inhibition [27] was 21.5% and the inhibition [28] was 12.4%. The inhibition [29] was 0.95%, the pKi ([30]; read-out: Ki) was 5.84 and the Ki ([30]; read-out: pKi (converted)) was 1350 nM. For the same compound, the IC50 [31] was 1.1 nM (active), the IC50 [32] was 141 nM (active) and the EC50 [33] was 30 nM (active). For the same compound, the IC50 [33] was 10.7 nM (active), the inhibition [34] was 17.8% and the inhibition [35] was -1.31%. For the same compound, the inhibition [36] was 14.6%, the inhibition [37] was 71.9% and the inhibition [38] was 26.9%. The IC50 [39] was 0.9 nM (active), the inhibition [40] was 38.9% and the IC50 [41] was 5.6 nM (active). For the same compound, the inhibition [42] was 16.8%, the inhibition [43] was 8.08% and the inhibition [44] was 7.35%. The inhibition [45] was 1.83%, the IC50 [46] was 35 nM (active) and the inhibition [47] was 30.8%. The inhibition [48] was 31.1%, the inhibition [49] was 11.4% and the inhibition [50] was 38%. It also gave an inhibition [51] of 22.6%, an inhibition [52] of 10.8% and an inhibition [53] of 40%. For the same compound, the EC50 [2] was 15 nM (active), the IC50 [2] was 2.84 nM (active) and the inhibition [54] was -1.55%.
